These results are taken from PubChem BioAssay (NCI).

Where “and” joins values, the source holds several entries; their conditions need not be identical. Identical values can stand only once.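 Assay format: 96-well plates, 48-hour exposure. At the GI50, growth is halved. At the TGI there is no net growth.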 Bounds are passed on as bounds.

Holding throughout (test): NCI tumour cell line growth inhibition, 48 h
Assay [1] concerns K-562 leukemia.
For assay [2], the system named is TK-10 renal.
Assay [3] has as its system NCI-H23 lung.
For assay [4], the system named is SF-295 CNS.
The test system of assay [5] is BT-549 breast.
Assay [6] has as its system SF-268 CNS.
Assay [7] has as its system OVCAR-8 ovarian.
Assay [8] relates to HT29 colon.
The subject of assay [9] is OVCAR-5 ovarian.
Assay [10] concerns SK-MEL-2 melanoma.

As for `COc1ccc2c(ccc3oc([N+](=O)[O-])cc32)c1`, the GI50 in [1] is 0.0647 µM; in [2], 0.278 µM; in assay [3], 0.203 µM; in assay [4] it was 0.302 µM; in assay [5], 0.187 µM; in assay [6], 0.176 µM. In addition, the GI50 in assay [7] was 0.18 µM; in assay [8], 0.202 µM; in [9], 0.364 µM; in assay [10] it was 0.107 µM. For the same compound, the TGI is 6.14 µM in [1]; 0.854 µM in [2]; 0.605 µM in assay [3]; 1.9 µM in [4]; 0.521 µM in assay [5]; 1.87 µM in [6]. For the same compound, the TGI in assay [7] came out at 1.2 µM; in [8], 0.874 µM; in assay [9], 4.74 µM; in assay [10] it was 0.292 µM.

For `COc1cc(NC(=O)c2cc3ccccc3cc2O)c(OC)cc1Cl`, the GI50 in assay [1] is 1.84 µM; in assay [2], 3.64 µM; in assay [3] it was 1.59 µM; in assay [4], 1.8 µM; in assay [5] it was 1.65 µM; in assay [6], 3.42 µM. Besides, the GI50 in assay [7] was 2.84 µM; in assay [8], 2.89 µM; in assay [9], 2.25 µM; in [10], 2.74 µM. Further, the TGI in assay [2] was 7.7 µM; in assay [3], 7.05 µM; in assay [4] it was 4.54 µM; in assay [5] it was 5.05 µM; in assay [6] it was 14.4 µM; in [7], more than 32.8 µM. For the same compound, the TGI was 19.8 µM in [8], 10.6 µM in assay [9] and 6.95 µM in assay [10].

For the compound `COC(=O)C1OC(SCCN)C(O)C(O)C1O` (stereo unspecified), the TGI in assay [1], in assay [2], in [3], in assay [4], in assay [5] and in assay [6] was more than 100 µM in each case. The TGI in assay [7], in [8], in assay [9] and in assay [10] was more than 100 µM throughout.

Regarding `CCSc1nnc(-c2ccc3ccccc3c2O)n1-c1ccccc1`, the TGI in assay [2], in assay [3], in [5] and in assay [6] was more than 100 µM in each case. Besides, the GI50 is more than 100 µM in assay [3], more than 100 µM in [5] and 8.02 µM in [6].

Turning to `N#Cc1cc2c(=S)[nH]c(=S)[nH]c2nc1SCc1ccccc1`, the GI50 was 36.9 µM in [1]; 12.3 µM in [2]; 32 µM in assay [3]; 46.8 µM in assay [4]; 47.2 µM in assay [5]; 30.6 µM in assay [6]. The GI50 in assay [7] was 58.1 µM; in [9], 76.2 µM; in [10], 66.7 µM. Also, the TGI in assay [1] is more than 100 µM; in [2], 65 µM; in assay [3] it was more than 100 µM; in assay [4], more than 100 µM; in assay [5], more than 100 µM; in assay [6], more than 100 µM. Further, the TGI in assay [7], in [9] and in [10] was more than 100 µM in each case.

Regarding `CCN1C(=O)N[C@H]2[C@@H]3NC(=O)c4ccc(Cl)n4[C@@H]3C[C@]21O`, the GI50 in assay [1] was 0.363 µM; in assay [2] it was 1.66 µM; in [3], 0.531 µM; in assay [4], 1 µM; in [5], 0.41 µM; in [6], 0.502 µM. Besides, the GI50 was 0.533 µM in assay [7], 0.968 µM in assay [8] and 0.301 µM in assay [10]. In addition, the TGI in [1] stood at 5.09 µM; in assay [2], 12.5 µM; in [3], 4.52 µM; in assay [4], 4.93 µM; in [5], 4.29 µM; in assay [6], 52.3 µM. The values for the TGI in assay [7], in assay [8] and in [10] were 9.01 µM, 10.4 µM and 1.21 µM, respectively.

Regarding `O=c1c2cc(Br)ccc2n(C2OC(CO)C(O)C(O)C2O)c(=S)n1-c1ccccc1` (stereo unspecified), the TGI in [1], in assay [2], in assay [3], in assay [4], in assay [6] and in assay [7] was more than 100 µM throughout. Besides, the TGI in assay [8], in [9] and in assay [10] was more than 100 µM throughout.

For `CCN1Cc2c(/C=C/c3ccccc3)nc3ccc(OC)cc3c2N(c2cccc(Cl)c2)C1`, the GI50 in assay [2] is 1.62 µM; in [3], 1.67 µM; in assay [4], 1.69 µM; in assay [5] it was 5.73 µM; in [6] it was 1.87 µM; in assay [7], 1.84 µM. Also, the GI50 is 1.45 µM in assay [8], 1.49 µM in [9] and 1.72 µM in assay [10]. For the same compound, the TGI worked out at 3.43 µM in assay [2]; 4.2 µM in assay [3]; 3.6 µM in assay [4]; 23 µM in [5]; 3.67 µM in assay [6]; 4.29 µM in assay [7]. Besides, the figures for the TGI in assay [8], in [9] and in [10] were 3.03 µM, 2.97 µM and 3.56 µM, respectively.

`O=C(Cc1ccccc1)N/N=C(/c1nc2ccc([N+](=O)[O-])cc2[nH]c1=O)C(O)c1ccco1` (stereo unspecified): the TGI in assay [1], in [2], in assay [3], in assay [4], in assay [6] and in assay [7] was more than 100 µM each time. For the same compound, the TGI in assay [8], in assay [9] and in assay [10] was more than 100 µM each time.

In the case of `Clc1ccc2c(NCCNc3nc(N4CCCCC4)nc4ccccc34)ccnc2c1`, the GI50 in [2] is 2.15 µM; in assay [3], 4.07 µM; in assay [4], 1.71 µM; in assay [5], 2.01 µM; in assay [6], 2.39 µM; in assay [7] it was 2.17 µM. In addition, the GI50 in assay [8] is 1.58 µM; in assay [9] it was 2.68 µM; in [10] it was 1.79 µM. Besides, the TGI in assay [2] is 5.13 µM; in assay [3] it was 18.4 µM; in assay [4], 3.23 µM; in assay [5], 4.68 µM; in assay [6], 7.33 µM; in [7], 5.18 µM. Moreover, the TGI is 4.1 µM in assay [8], 10.1 µM in assay [9] and 3.83 µM in assay [10].

On to `CSc1ccc(NC(=O)CCl)cc1`, for which the TGI in assay [1] is more than 10 µM; in assay [2] it was more than 10 µM; in assay [3], more than 10 µM; in assay [4], 5.1 µM; in [6] it was more than 10 µM; in [7] it was more than 10 µM. Also, the TGI was more than 10 µM in assay [8], more than 10 µM in [9] and 5.1 µM in [10].

On to `Nc1ccccc1-n1c2c(c3ccccc3c1=O)C(=O)c1ccccc1-2`, for which the TGI in [1] was more than 100 µM; in assay [3] it was 51.1 µM; in assay [4], 40.1 µM; in assay [5], 12.9 µM; in assay [6], 48.2 µM; in [7] it was 45.4 µM. Moreover, the TGI in assay [8] was more than 100 µM; in assay [9], more than 100 µM; in assay [10], 52.8 µM.

As to `CN(C)C(=S)/N=C(\N)N(C)C`, the TGI in [1], in assay [2], in assay [3], in assay [4], in assay [6] and in assay [7] was more than 100 µM in each case. For the same compound, the TGI in [8], in assay [9] and in assay [10] was more than 100 µM throughout.

With `O=CCC(O)C(O)C(O)CO` (stereo unspecified), the GI50 in assay [1], in assay [2], in assay [3], in assay [4], in assay [6] and in assay [7] was more than 100 µM each time. For the same compound, the GI50 in [8], in assay [9] and in assay [10] was more than 100 µM throughout. The TGI in assay [1], in assay [2], in assay [3], in assay [4], in assay [6] and in assay [7] was more than 100 µM throughout. In addition, the TGI in assay [8], in assay [9] and in [10] was more than 100 µM in each case.

Regarding `CC[C@H](C)C(=O)O[C@H]1C[C@@H](C)C=C2C=C[C@H](C)[C@H](CC[C@@H]3C[C@@H](O)CC(=O)O3)[C@H]21`, the GI50 in assay [1] was 27.7 µM and 12.8 µM; in assay [2] it was 26.3 µM and 19.3 µM; in assay [3] it was 5.37 µM and 8.14 µM; in [5], 11.3 µM and 8.48 µM; in assay [7], 2.96 µM and 6.79 µM; in [8] it was 24.7 µM and 21.4 µM. Besides, the GI50 in assay [9] is 12.5 µM and 10.3 µM; in assay [10] it was 1.7 µM and 1.12 µM. The TGI was more than 100 µM in assay [1]; more than 100 µM in assay [2]; > 100 µM and 25.2 µM in assay [5]; more than 100 µM in [7]; more than 100 µM in assay [8]; > 100 µM and 32.9 µM and > 30 µM in assay [9]. In addition, the TGI in assay [10] was 8.32 µM and 9.48 µM and > 30 µM.

On to `CC(C)(C)CC(C)(C)c1cc2c(O)c(c1)Cc1cc(C(C)(C)CC(C)(C)C)cc(c1O)Cc1cc(C(C)(C)CC(C)(C)C)cc(c1O)Cc1cc(C(C)(C)CC(C)(C)C)cc(c1O)Cc1cc(C(C)(C)CC(C)(C)C)cc(c1O)Cc1cc(C(C)(C)CC(C)(C)C)cc(c1O)Cc1cc(C(C)(C)CC(C)(C)C)cc(c1O)Cc1cc(C(C)(C)CC(C)(C)C)cc(c1O)C2`, for which the TGI in [1], in [2], in assay [3], in [4], in [6] and in assay [7] was more than 100 µM throughout. Moreover, the TGI in assay [8], in [9] and in assay [10] was more than 100 µM throughout.

As to `O=C1c2ccccc2-c2c1c1ccc([N+](=O)[O-])cc1c(=O)n2CCN1CCOCC1`, the GI50 in assay [1] is more than 100 µM; in assay [2] it was more than 100 µM; in assay [3] it was more than 100 µM; in assay [4] it was 92 µM; in assay [6] it was more than 100 µM; in assay [7], more than 100 µM. The GI50 in assay [8], in assay [9] and in assay [10] was more than 100 µM in each case. The TGI in assay [1], in [2], in assay [3], in [4], in assay [6] and in [7] was more than 100 µM throughout. For the same compound, the TGI in assay [8], in assay [9] and in assay [10] was more than 100 µM in each case.

As for `Cc1c(-c2cc(-c3ccccc3)n[nH]c2=O)c2ccccc2n1C`, the TGI in assay [1], in assay [2], in assay [3], in assay [4], in assay [6] and in assay [7] was more than 100 µM in each case. Besides, the TGI in [8], in [9] and in assay [10] was more than 100 µM throughout.

Turning to `CC(NNC(=S)N1CCN(c2ccccn2)CC1)c1cccc[n+]1[O-]` (stereo unspecified), the TGI in assay [2], in assay [3], in [4], in [5], in assay [6] and in [7] was more than 100 µM each time. Besides, in [8], the TGI is more than 100 µM.

Turning to `C=CC(=O)OCCCS(=O)(=O)[O-].C=CC(=O)OCCCS(=O)(=O)[O-].NC1CCCCC1N.[Pt+4]`, the GI50 in assay [1], in assay [2], in assay [3], in [4], in [6] and in assay [7] was more than 25 µM each time. The GI50 in [8], in [9] and in [10] was more than 25 µM each time. For the same compound, the TGI in assay [1], in [2], in assay [3], in [4], in assay [6] and in [7] was more than 25 µM throughout. Besides, the TGI in assay [8], in assay [9] and in assay [10] was more than 25 µM each time.

Regarding `O=C(O)c1ccccc1C(=O)Nc1cc2c(cc1Br)-c1ccccc1C2=O`, the TGI in [1], in [2], in assay [3], in assay [5], in assay [6] and in [7] was more than 100 µM throughout. Besides, the TGI in [8], in assay [9] and in assay [10] was more than 100 µM in each case.
